Source: patent publication US12274703B2, “Compositions and methods of treatment for neurological disorders comprising a dementia” (Gliapharm SA, priority 2017, dated 2025)

Test system: astrocytes
Test: Extracellular lactate quantification
Format: cell-based, mouse
Settings: Mus musculus, Astrocyte; Appendix II; lactate secretion; read-out: EC50
Method: (§1) Primary cultures of cerebrocortical astrocytes were obtained from 1-2-day-old OF1 mouse pups (Charles River Laboratories). Briefly, cortices were isolated and minced in small pieces under a dissecting microscope. The cells were incubated for 30 min at 37° C. in a solution containing 20 U/ml of papain enzyme (Worthington Biochemical), L-cysteine 1 mM (Sigma), and 10 kU/ml DNase I (Worthington Biochemical) for an enzymatic dissociation. Papain activity was stopped by the addition of fetal calf serum (FCS) to the solution, and a single-cell suspension was then obtained by mechanical dissociation, which consisted in cells trituration in a DMEM (D7777, Sigma-Aldrich) medium (supplemented with 44 mm NaHCO3, and 10 ml/L antibiotic/antimycotic solution) containing 10% FCS. The cells were seeded at an average density of 6×10^4 cells/cm^2 in poly-D-lysine-coated 96, 12 or 6-well culture plates, depending on their use, and incubated at 37° C. in a humidified atmosphere containing 5% CO2/95% air. Culture medium was renewed twice per week. Cells were stimulated and harvested between DIV14 and DIV17, when confluence and cell growth were optimal.
Secretion of L-lactate was determined in the extracellular medium of 96-well plated astrocytes after 90 min stimulation (at 37° C., in 5% CO2/95% air conditions) with the drug of interest. The stimulation medium was composed of D5030 medium (completed with D-glucose 5 mM and 44 mM sodium bicarbonate) for 90 min in concentrations ranging from 0 to 100 μM.
Briefly, 200 μl of a Glycine (Sigma)-Semicarbazide (Acros) 0.2M pH 10 buffer containing 3 mM NAD (Roche) and LDH 14 U/ml (Roche) was added to each well of a 96-well plate containing 30 μl aliquots complemented with 20 μl fresh complete D5030 medium. Samples were incubated at 37° C. for 1 h. After samples cooled down at room temperature, the fluorescence intensity (340 nm excitation/450 nm emission) that represents the amount of NADH produced was measured, and lactate concentration values were determined from a standard curve of L-lactate.
Statistical analysis consisted in ANOVA followed by Fisher LSD post-hoc test for pair-wise comparisons.
Levels of lactate secreted by astrocytes were measured in the extracellular medium at 90 min after stimulation with hits (molecules) from the CDC54K library.

| EC50 [µM] | Compound |
| --- | --- |
| 4.64 | Cn1c(=O)c(N2CCC(NC(=O)Nc3cccc(Cl)c3)CC2)nc2ccccc21 [L932-0267] |
| 3.89 | c1nc(NCc2ccc3c(c2)OCO3)c2sccc2n1 [T5787526] |
| 2.61 | CCOc1ccc(C2(O)C(C)[N+]3=C(CCC3)N2c2ccc(OC)cc2)cc1 (stereo not drawn) [T0500-6629] |
| 3.84 | Cc1sc2nc(CSc3nc4ccccc4c(=O)n3C)[nH]c(=O)c2c1C [T0517-2783] |
| 4.02 | COc1ccc(-c2csc(N3C(=O)CC4CS(=O)(=O)CC43)n2)cc1 (stereo not drawn) [T5832764] |
| 4.61 | Cc1nc2ccc(NC(=O)c3ccc4c(c3)CC(C)N4S(C)(=O)=O)cc2s1 (stereo not drawn) [T5606387] |
| 7.99 | CCN(CC)C(=O)c1nc(CNC(=O)c2ccc3ccccc3n2)oc1C [T993-1787] |
| 5.45 | CCOc1ccc(CN(C)CC(=O)Nc2cccc(C)c2)cc1OC [T5318833] |
| 4.29 | c1ccc(Cc2ccc(OCCn3ccnc3)cc2)cc1 [T5821723] |
| 8.23 | O=C(Nc1ccc(S(=O)(=O)NCC2CCCO2)cc1)c1ccccc1 (stereo not drawn) [Y031-0361] |
| 5.43 | COc1ccc(NS(=O)(=O)c2cccc(NC(=O)c3cccs3)c2)cc1 [T0517-4117] |
| 7.42 | N#Cc1ccc(S(=O)(=O)Nc2ccccc2C(=O)NCc2ccccc2)cc1 [T5673322] |

Test system: primary astrocytes
Test: High throughput screening for lactate secretion: acidification of extracellular medium (SNARF5)
Format: cell-based, mouse
Settings: Mus musculus, Astrocyte, 1.5 h; Appendix I; primary screening, 10 uM, 90 min; relative to positive control; read-out: Score
Method: as §1
Secretion of lactate in a high-throughput screening (HTS) fashion was measured indirectly through the acidification of extracellular medium. To this end, primary astrocytes grown in 96-well plates for 17 days were stimulated with the compounds as listed herein.
After washing the cells twice with stimulation medium (DMEM (D5030, Sigma), 3 mM NaHCO3 and 5 mM Glucose) at 37° C., cells were stimulated with the compounds at a final concentration of 10 uM (1% DMSO final) in 50 ul per well of stimulation medium supplemented with 10 uM of the extracellular pH sensor SNARF-5F %-(AND-6)-CAR (Life Technologies Corporation). Each compound was tested in two different plates for duplicates.
After 90 min stimulation, fluorescence was read at exc. (excitation) 480 nm/emm. (emission) 580 nm and at exc 480 nm/emm. 630 nm. The ratio of fluorescence between 630 nm and 580 emission values, which represents extracellular pH, was calculated.
In each plate, 8 wells were used for negative controls (DMSO) and 8 wells were used for positive controls (CCCP 2 uM in DMSO). Z prime values were calculated for each of the plates tested and values <0 were discarded.
The average and SD of compounds' values tested in duplicates were calculated, and compound was noted as HIT when the difference between compound's average and negative control's average was greater than three times the sum of compound's SD and negative controls' SD. Only scores greater than 40% were considered as lead hits for the CDC54K library; for the remaining libraries, all hits were considered. Scores are calculated as the % of activity compared to the positive control in each plate (which is 100%).
Primary screening hits were cherry picked on new plates and confirmed for SNARF5 effect, after having discarded those compounds that are fluorescent (exc. 480 nm/emm. 580 nm or 630 nm) before stimulation. Extracellular medium was next analyzed for extracellular lactate quantification for secondary screening.
Identification of lactate-enhancing drugs with high throughput screening (HTS) experiments on astrocytes primary cultures using extracellular pH dye (SNARF5F 5-(and 6)-carboxylic acid) for 90 min. The procedure is described in Material and Methods (2. Cell culture, 2.1. HTS for lactate secretion and 2.2. Extracellular lactate quantification).
The procedure was performed as follows: • Primary screening: acidification of the extracellular medium • Primary screening confirmation: acidification of the extracellular medium, removal of compounds with fluorescent activity at exc. 480 nm/emm. 580 nm or 630 nm. • Secondary screening: dosage of extracellular lactate

| Compound | Emax at 10 µM [%] |
| --- | --- |
| O=C(NCc1ccccc1)NC1CCN(c2ncnc3c2CCC3)C1 (stereo not drawn) [T636-1210] | 48.9 |
| CCOc1ccc(-c2cc3n(n2)CCCN(C(=O)c2cccnc2)C3)cc1 [T200-0707] | 16.7 |
| CCn1nccc1-c1csc(S(=O)(=O)Nc2cc(C)ccc2C)c1 [L924-0988] | 52.7 |
| CC(=O)N1CCCc2cc(S(=O)(=O)NCc3cccc(C(F)(F)F)c3)ccc21 [T6099519] | 27.6 |
| Cn1nccc1C(=O)N1CCC(Nc2ncnc3c2CCC3)C1 (stereo not drawn) [T636-2425] | 22 |
| c1coc(CNc2nc(-c3ccncc3)nc3c2CCC3)c1 [T636-0973] | 0 |
| O=S(=O)(Nc1ccc(F)c(Cl)c1)c1ccc2ccccc2c1 [T5231424] | 67.3 |
| COc1ccc(CN2CCN(c3ncnc4c3CCC4)CC2)cc1OC [T636-2007] | 102 |
| O=C(C[n+]1cc(-c2ccc(Br)cc2)n2c1CCCCC2)c1ccccc1 [T0500-4648] | 109 |
| CNC(=O)C1CCCN(c2ncnc3oc(C)c(C)c23)C1 (stereo not drawn) [F228-0541] | 15.3 |
| Cc1ccccc1NS(=O)(=O)c1ccc2onc(C(=O)N3CCCCC3)c2c1 [L995-0405] | 21.3 |
| COc1ccc(Cl)cc1S(=O)(=O)NCc1ccncc1 [F0376-0203] | 20.3 |
| COc1ccccc1Nc1nc(N2CCOCC2)c2ccccc2n1 [F3007-0009] | 19.8 |
| c1cncc(CCNc2ncnc3c2CCC3)c1 [T636-0085] | 28.4 |
| O=C(c1ccco1)N1CCCn2nc(-c3ccc(C(F)(F)F)cc3)cc2C1 [T200-0370] | 56.2 |
| COc1ccc(C2(O)C[N+](c3cc(C)ccc3C)=C3SCCCN32)c(F)c1 (stereo not drawn) [K404-0183] | 89.6 |
| COc1ccccc1[N+]1=C2CCCCCN2C(O)(c2cccc([N+](=O)O)c2)C1 (stereo not drawn) [K404-0842] | 16.9 |
| Cc1oc2ncnc(N3CCCC(C(=O)NCc4ccccc4)C3)c2c1C (stereo not drawn) [F228-0365] | 103 |
| Cc1cccc([N+]2=C3SCCCN3C(O)(c3ccc(OC(F)F)cc3)C2)c1 (stereo not drawn) [K404-0400] | 36.3 |
| COc1ccc([N+]2=C3SCCCN3C(O)(c3cccc([N+](=O)[O-])c3)C2)cc1 (stereo not drawn) [K404-0277] | 0 |
| O=S(=O)(Nc1ccc2[nH]ncc2c1)c1ccc(Cl)cc1F [T5436375] | 0 |
| Cc1ccc(F)cc1NC(=O)Cc1nn(C)c(=O)c2ccccc12 [T6302989] | 40.5 |
| Cn1nccc1-c1csc(S(=O)(=O)Nc2ccc(F)cc2)c1 [L924-0760] | 69.1 |

| Compound | Emax at 10 µM [%] |
| --- | --- |
| CC(=O)N1CCCc2cc(S(=O)(=O)NCc3ccccc3)ccc21 [G855-0210] | 20.6 |
| Cc1oc2ncnc(N3CCCC(C(=O)NCc4cccnc4)C3)c2c1C (stereo not drawn) [F228-0351] | 59.2 |
| Cc1ccc(CNS(=O)(=O)c2ccc3onc(C(=O)N4CCCCC4)c3c2)cc1 [L995-0386] | 18.8 |
| O=C(Cc1n[nH]c(=O)c2ccccc12)Nc1cccc(Br)c1 [T5717474] | 21.7 |
| c1ccc(CN2CCC(Nc3ncnc4c3CCC4)CC2)nc1 [T636-1715] | 0 |
| O=C(c1noc2ccc(S(=O)(=O)Nc3cccc(F)c3)cc12)N1CCCC1 [L995-0058] | 42.3 |
| O=C(C1CC1)N1CCc2sc(S(=O)(=O)Nc3cccc(Cl)c3)cc2C1 [P025-0462] | 38.7 |
| CCOc1ccc(C2(O)C[N+](c3ccccc3OC)=C3CCCCN32)cc1 (stereo not drawn) [K404-0673] | 93.1 |
| Cc1ccc(CNc2ncnc3c2CCC3)o1 [T636-0054] | 55.3 |
| Cc1oc2ncnc(N3CCCC(C(=O)NCc4ccccn4)C3)c2c1C (stereo not drawn) [F228-0350] | 95.8 |
| COc1ccccc1[N+]1=C2CCCCCN2C(O)(c2ccccc2)C1 (stereo not drawn) [K404-0838] | 103 |
| COc1ccc(C2SCCN2S(=O)(=O)c2cccc(C)c2)cc1OC (stereo not drawn) [T5463658] | 27.2 |
| c1ccc(C(Nc2ncnc3sccc23)C2CC2)cc1 (stereo not drawn) [T6016487] | 126 |
| CCOc1ccc(C2(O)C[N+](c3cc(OC)ccc3OC)=C3CCCCCN32)cc1 (stereo not drawn) [K404-0860] | 57.9 |
| Clc1ccc(Nc2ncnc3sccc23)cc1 [T5393195] | 36.9 |
| O=S(=O)(Nc1ccc2[nH]ncc2c1)c1ccc(C(F)(F)F)cc1 [T5653029] | 36.2 |
| CCc1ccc(C2(O)C[N+](c3ccccc3OC)=C3CCCCN32)cc1 (stereo not drawn) [K404-0672] | 125 |
| COc1ccc(C2(O)C[N+](c3cc(C)ccc3C)=C3CCCCCN32)cc1OC (stereo not drawn) [K404-0852] | 0 |
| CCn1nccc1-c1csc(S(=O)(=O)Nc2ccccc2OC)c1 [L924-1088] | 78.5 |
| Cn1nc(CC(=O)Nc2cccc(C(=O)NC3CC3)c2)c2ccccc2c1=O [T5543110] | 39.1 |
| Cc1ccc(S(=O)(=O)N2CCSC2c2cccc([N+](=O)[O-])c2)c(C)c1 (stereo not drawn) [T5463709] | 24.4 |
| c1ccc2c(c1)CN(c1ncnc3sccc13)CCN2 [T6768300] | 34.4 |

Same assay, conditions: Mus musculus, Astrocyte, 1.5 h; Prestwick hits; 10 uM, 90 min; activity relative to positive control CCCP 2 uM; read-out: Score

| Compound | Emax at 10 µM [%] |
| --- | --- |
| Clc1ccc(COC(Cn2ccnc2)c2ccc(Cl)cc2Cl)c(Cl)c1 (stereo not drawn) [Miconazole] | 7.35 |
| CCC(=O)O[C@@H](O[P@](=O)(CCCCc1ccccc1)CC(=O)N1C[C@H](C2CCCCC2)C[C@H]1C(=O)O)C(C)C [Fosinopril] | 5.71 |
| CCCCOc1cc(C(=O)NCCN(CC)CC)c2ccccc2n1 [Dibucaine] | 6.12 |

Same assay, conditions: Mus musculus, Astrocyte, 1.5 h; Prestwick hits; 10 uM, 90 min; relative to positive control CCCP 2 uM; read-out: HTS Score (lactate)

| Compound | Emax at 10 µM [%] |
| --- | --- |
| Clc1ccc(COC(Cn2ccnc2)c2ccc(Cl)cc2Cl)c(Cl)c1 (stereo not drawn) [Miconazole] | 7.3 |
| CCC(=O)O[C@@H](O[P@](=O)(CCCCc1ccccc1)CC(=O)N1C[C@H](C2CCCCC2)C[C@H]1C(=O)O)C(C)C [Fosinopril] | 5.7 |
| CCCCOc1cc(C(=O)NCCN(CC)CC)c2ccccc2n1 [Dibucaine] | 6.1 |
